From paper PMC9084593 (Cell reports, 2022)

Key:
GlmU = GlmU (Streptococcus pneumoniae, UniProt Q04KU2); test: DTNB colorimetric acetyltransferase assay, […] nm; format: biochemical; conditions: 0.4 mM GlcN-1-P, 1 mM acetyl CoA, 5 mM MgCl2, pH 7.5, 37°C
GlmM = target: T1, GlmM (Streptococcus pneumoniae, UniProt Q04JI8); test: GlmU-coupled DTNB colorimetric mutase assay, […] nm; format: biochemical; conditions: 0.4 mM GlcN-6-P, 2 mM acetyl CoA, 5 mM MgCl2, pH 7.5, 37°C
T1 sequence (Q04JI8 1-450): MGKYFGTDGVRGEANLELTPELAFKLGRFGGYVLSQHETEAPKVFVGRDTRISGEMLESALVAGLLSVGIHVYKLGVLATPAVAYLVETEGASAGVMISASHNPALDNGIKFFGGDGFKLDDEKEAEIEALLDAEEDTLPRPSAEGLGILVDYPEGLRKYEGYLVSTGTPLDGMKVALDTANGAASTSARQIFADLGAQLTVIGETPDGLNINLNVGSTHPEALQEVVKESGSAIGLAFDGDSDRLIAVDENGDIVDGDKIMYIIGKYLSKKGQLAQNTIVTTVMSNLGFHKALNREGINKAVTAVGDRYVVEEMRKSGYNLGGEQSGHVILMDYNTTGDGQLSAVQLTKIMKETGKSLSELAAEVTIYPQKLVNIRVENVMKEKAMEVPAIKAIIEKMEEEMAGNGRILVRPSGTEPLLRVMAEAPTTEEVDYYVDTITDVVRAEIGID

Chain of GlmU (Q04KU2 whole entry): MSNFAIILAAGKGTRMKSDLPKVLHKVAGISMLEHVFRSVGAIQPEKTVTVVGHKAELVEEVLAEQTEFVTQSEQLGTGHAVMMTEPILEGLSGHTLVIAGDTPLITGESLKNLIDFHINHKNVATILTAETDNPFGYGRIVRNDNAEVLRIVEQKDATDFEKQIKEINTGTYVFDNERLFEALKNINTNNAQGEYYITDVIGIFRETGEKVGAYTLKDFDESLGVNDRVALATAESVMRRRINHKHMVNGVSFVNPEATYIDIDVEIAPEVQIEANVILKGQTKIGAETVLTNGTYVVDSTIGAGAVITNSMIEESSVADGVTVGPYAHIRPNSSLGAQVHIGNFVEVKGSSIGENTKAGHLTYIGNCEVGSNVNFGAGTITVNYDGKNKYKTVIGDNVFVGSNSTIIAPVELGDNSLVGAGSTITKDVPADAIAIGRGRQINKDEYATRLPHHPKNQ

Structure (SMILES)	DTNB colorimetric acetyltransferase assay, 412 nm (GlmU)	GlmU-coupled DTNB colorimetric mutase assay, 412 nm (GlmM)
N[C@H]1[C@@H](OP(=O)(O)O)O[C@H](CO)[C@@H](O)[C@@H]1O [GlcN-1-P]	The GlcN-1-P acetyltransferase activities of the GlmU and the GlmUE315AH330A variant were measured	–
N[C@H]1C(O)O[C@H](COP(=O)(O)O)[C@@H](O)[C@@H]1O (some centres unmarked) [GlcN-6-P]	–	The glucosamine-6-phosphate (GlcN-6-P) mutase activity of GlmM was assayed
